Measured values: patent US20260258064A1 (SIRONAX LTD., priority 2023, published 2026)

target: T1, SARM1 (50-724) (Homo sapiens, UniProt Q6SZW1); test: SARM1 (50-724) enzymatic assay (LC-MS/MS); type: biochemical; details: Purified SARM1 (50-724) 2 nM, NMN as activator, NAD+ as substrate, 1 h at room temperature, read-out: IC50 (SARM1 inhibitory activity)
T1 construct: Purified SARM1 (50-724) with a final concentration of 2 nM was pre-incubated with a test compound
T1 sequence (Q6SZW1 50-724): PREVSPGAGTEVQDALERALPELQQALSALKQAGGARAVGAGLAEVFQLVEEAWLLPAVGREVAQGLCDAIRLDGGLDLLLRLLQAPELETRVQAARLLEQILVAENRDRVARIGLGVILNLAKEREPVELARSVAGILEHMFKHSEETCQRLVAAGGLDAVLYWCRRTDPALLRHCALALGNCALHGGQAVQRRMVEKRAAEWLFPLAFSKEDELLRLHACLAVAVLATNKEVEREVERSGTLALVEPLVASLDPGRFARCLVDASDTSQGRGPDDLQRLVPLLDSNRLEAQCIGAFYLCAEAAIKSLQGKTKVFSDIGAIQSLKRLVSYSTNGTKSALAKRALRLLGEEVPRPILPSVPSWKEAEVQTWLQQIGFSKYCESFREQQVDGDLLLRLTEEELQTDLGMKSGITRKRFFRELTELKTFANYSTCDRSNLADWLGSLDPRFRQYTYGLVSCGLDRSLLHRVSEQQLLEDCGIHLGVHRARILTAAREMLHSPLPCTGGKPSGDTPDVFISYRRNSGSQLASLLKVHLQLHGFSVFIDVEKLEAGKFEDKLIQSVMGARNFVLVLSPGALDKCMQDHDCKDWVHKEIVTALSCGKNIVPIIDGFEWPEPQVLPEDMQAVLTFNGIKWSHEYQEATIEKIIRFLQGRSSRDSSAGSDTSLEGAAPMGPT
Method in brief: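 Human SARM1 (50-724), 2 nM, pre-incubated 15 min at room temperature with compound in Dulbecco's PBS. Reaction started with 200 µM NMN (activator) plus […] NAD^+ substrate, run 1 h at room temperature, quenched with 70% acetonitrile. Turnover quantified by LC-MS/MS; IC50 reported.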

First: CN(c1ccc2[nH]c(-c3nncn3-c3cnccc3C(F)(F)F)nc2c1)S(C)(=O)=O [Compound 341, N-methyl-N-[2-[4-[4-(trifluoromethyl)-3-pyridyl]-1,2,4-triazol-3-yl]-1H-benzimidazol-5-yl]methanesulfonamide]
Second: CC(CN(C)C)c1ccc2[nH]c(-c3nncn3-c3cnccc3C(F)(F)F)nc2c1 (centres unmarked) [Compound 365]
The IC50 of the first is lower: 100 to 500 nM for the first, greater than 1000 nM for the second. The first is the more potent here.

First: FC(F)(F)c1ccncc1-n1cnnc1-c1nc2cc(N3C4COCC3C4)ccc2[nH]1 [Compound 342, 6-[2-[4-[4-(trifluoromethyl)-3-pyridyl]-1,2,4-triazol-3-yl]-1H-benzimidazol-5-yl]-3-oxa-6-azabicyclo[3.1.1]heptane]
Second: FC(F)(F)c1ccncc1-n1cnnc1-c1nc2cc(C3CCOCC3)ccc2[nH]1 [Compound 352, 5-tetrahydropyran-4-yl-2-[4-[4-(trifluoromethyl)-3-pyridyl]-1,2,4-triazol-3-yl]-1H-benzimidazole]
The IC50 of the first is higher: 500 to 1000 nM for the first, 100 to 500 nM for the second.

CC(C)(O)c1ccc2[nH]c(-c3nnccc3-c3cnccc3C(F)(F)F)nc2c1F [Compound 343, 2-(4-Fluoro-2-(4-(4-(trifluoromethyl)pyridin-3-yl)pyridazin-3-yl)-1H-benzo[d]imidazol-5-yl)propan-2-ol] and CC(C)(C)c1ccc2[nH]c(-c3nncn3-c3cnccc3C(F)(F)F)cc2n1 [Compound 348, 5-(tert-butyl)-2-(4-(4-(trifluoromethyl)pyridin-3-yl)-4H-1,2,4-triazol-3-yl)-1H-pyrrolo[3,2-b]pyridine] cannot be ordered by IC50: no more than 100 nM for the first, no more than 100 nM for the second.

First: FC(F)(F)c1ccc2[nH]c(N3CCC3c3ccccc3)nc2c1 (centres unmarked) [Compound 344, 2-(2-phenylazetidin-1-yl)-5-(trifluoromethyl)-1H-benzo[d]imidazole]
Second: O=C1CN(c2nc3cc(C(F)(F)F)ccc3[nH]2)C(c2ccccc2)CN1 (centres unmarked) [Compound 368, 5-phenyl-4-(5-(trifluoromethyl)-1H-benzo[d]imidazol-2-yl)piperazin-2-one]
The IC50 of the first is lower: 500 to 1000 nM for the first, greater than 1000 nM for the second.

CS(=O)(=O)c1c(-c2nncn2-c2cccc(F)c2Cl)[nH]c2ccc(C(F)(F)F)cc12 [Compound 346, 2-[4-(2-chloro-3-fluorophenyl)-1,2,4-triazol-3-yl]-3-methanesulfonyl-5-(trifluoromethyl)-1H-indole] and FC(F)(F)c1ccc2[nH]c(-c3nncn3-c3cnccc3C(F)(F)F)c(C3CC3)c2c1 [Compound 366, 3-cyclopropyl-5-(trifluoromethyl)-2-(4-(4-(trifluoromethyl)pyridin-3-yl)-4H-1,2,4-triazol-3-yl)-1H-indole] cannot be ordered by IC50: no more than 100 nM for the first, no more than 100 nM for the second.

CC1(C)CC1c1cc(F)c2[nH]c(-c3nncn3-c3cnccc3C(F)(F)F)nc2c1 (centres unmarked) [Compound 347, 5-(2,2-dimethylcyclopropyl)-7-fluoro-2-(4-(4-(trifluoromethyl)pyridin-3-yl)-4H-1,2,4-triazol-3-yl)-1H-benzo[d]imidazole] and Fc1cc(C2CC23CCOCC3)cc2nc(-c3nncn3-c3cnccc3C(F)(F)F)[nH]c12 (centres unmarked) [Compound 360, 7-fluoro-5-(6-oxaspiro[2.5]octan-2-yl)-2-[4-[4-(trifluoromethyl)-3-pyridyl]-1,2,4-triazol-3-yl]-1H-benzimidazole] cannot be ordered by IC50: no more than 100 nM for the first, no more than 100 nM for the second.

Cn1cc(OC(F)(F)F)c(-n2cnnc2-c2nc3cc(C4CC4)cc(F)c3[nH]2)cc1=O [Compound 353, 4-(3-(5-cyclopropyl-7-fluoro-1H-benzo[d]imidazol-2-yl)-4H-1,2,4-triazol-4-yl)-1-methyl-5-(trifluoromethoxy)pyridin-2(1H)-one] and Cn1cc(OC(F)(F)F)c(-n2cnnc2-c2nc3c(F)c(C4CC4)ccc3[nH]2)cc1=O [Compound 354, 4-(3-(5-cyclopropyl-4-fluoro-1H-benzo[d]imidazol-2-yl)-4H-1,2,4-triazol-4-yl)-1-methyl-5-(trifluoromethoxy)pyridin-2(1H)-one] cannot be ordered by IC50: no more than 100 nM for the first, no more than 100 nM for the second.

CC(Oc1cc(F)c2[nH]c(-c3nncn3-c3cnccc3C(F)(F)F)nc2c1)C(F)(F)F (centres unmarked) [Compound 355, 7-fluoro-2-(4-(4-(trifluoromethyl)pyridin-3-yl)-4H-1,2,4-triazol-3-yl)-5-((1,1,1-trifluoropropan-2-yl)oxy)-1H-benzo[d]imidazole] and [2H]c1nnc(-c2nc3cc(C4([2H])CC4)cc(F)c3[nH]2)n1-c1cnccc1C(F)(F)F [Compound 359, 5-(cyclopropyl-1-d)-7-fluoro-2-(4-(4-(trifluoromethyl)pyridin-3-yl)-4H-1,2,4-triazol-3-yl-5-d)-1H-benzo[d]imidazole] cannot be ordered by IC50: no more than 100 nM for the first, no more than 100 nM for the second.

FC(F)(F)c1cnc2[nH]c(-c3nncn3-c3cnccc3C(F)(F)F)cc2n1 [Compound 356, 2-(trifluoromethyl)-6-(4-(4-(trifluoromethyl)pyridin-3-yl)-4H-1,2,4-triazol-3-yl)-5H-pyrrolo[2,3-b]pyrazine] and FC(F)(F)c1ccncc1-n1cnnc1-c1nc2cc(C34COC(C3)C4)ccc2[nH]1 [Compound 362, 5-(2-oxabicyclo[2.1.1]hexan-4-yl)-2-[4-[4-(trifluoromethyl)-3-pyridyl]-1,2,4-triazol-3-yl]-1H-benzimidazole] cannot be ordered by IC50: no more than 100 nM for the first, 100 to 500 nM for the second.

First: FC(F)(F)c1ccncc1-n1cnnc1-c1nc2c(N3CC4(COC4)C3)c(Cl)ccc2[nH]1 [Compound 357, 6-(5-chloro-2-(4-(4-(trifluoromethyl)pyridin-3-yl)-4H-1,2,4-triazol-3-yl)-1H-benzo[d]imidazol-4-yl)-2-oxa-6-azaspiro[3.3]heptane]
Second: FC1(F)CN(c2c(Cl)ccc3[nH]c(-c4nncn4-c4cnccc4C(F)(F)F)nc23)C1 [Compound 358, 5-chloro-4-(3,3-difluoroazetidin-1-yl)-2-(4-(4-(trifluoromethyl)pyridin-3-yl)-4H-1,2,4-triazol-3-yl)-1H-benzo[d]imidazole]
The IC50 of the first is higher: greater than 1000 nM for the first, 100 to 500 nM for the second. The second is the more potent here.

FC(F)(F)c1ccc2[nH]c(C3CSCCN3c3ccccc3)nc2c1 (centres unmarked) [Compound 361, 4-phenyl-3-[5-(trifluoromethyl)-1H-benzimidazol-2-yl]thiomorpholine] and O=C1CN(c2ccccc2)C(c2nc3cc(C(F)(F)F)ccc3[nH]2)CN1 (centres unmarked) [Compound 369, 4-phenyl-5-(5-(trifluoromethyl)-1H-benzo[d]imidazol-2-yl)piperazin-2-one] cannot be ordered by IC50: greater than 1000 nM for the first, greater than 1000 nM for the second.

Compared with FC(F)(F)c1ccc2[nH]c(C3COCCN3c3cccc(Cl)c3Cl)nc2c1 (centres unmarked) [Compound 363, 4-(2,3-dichlorophenyl)-3-[5-(trifluoromethyl)-1H-benzimidazol-2-yl]morpholine], FC(F)(F)c1ccncc1-n1cnnc1-c1nc2cc(C3CCCC3)ccc2[nH]1 [Compound 364, 5-cyclopentyl-2-(4-(4-(trifluoromethyl)pyridin-3-yl)-4H-1,2,4-triazol-3-yl)-1H-benzo[d]imidazole] is lower in IC50: 500 to 1000 nM for the first, no more than 100 nM for the second.

Compared with O=C1CCCN1c1c(-c2nncn2-c2cnccc2C(F)(F)F)[nH]c2ccc(C(F)(F)F)cc12 [Compound 367, 1-(5-(trifluoromethyl)-2-(4-(4-(trifluoromethyl)pyridin-3-yl)-4H-1,2,4-triazol-3-yl)-1H-indol-3-yl)pyrrolidin-2-one], COCCOc1c(Cl)ccc2[nH]c(-c3nncn3-c3cnccc3C(F)(F)F)nc12 [Compound 371, 5-chloro-4-(2-methoxyethoxy)-2-(4-(4-(trifluoromethyl)pyridin-3-yl)-4H-1,2,4-triazol-3-yl)-1H-benzo[d]imidazole] is lower in IC50: greater than 1000 nM for the first, 100 to 500 nM for the second. The second is the more potent here.
